# Read-outs that look alike come from different tables or passages of the source.
# Tests used:
# APP wild-type cells = assay: Aβ modulation in APP wild-type cells; assay type: cell-based; parameters: Aβ42 raised: dose or concentration left out as unconfirmed
# Procedure: (§1) (A) and (B) The sequences of wildtype (WT; A) APP and the mutated substrate (B) containing the homologous region (italic, underlined) of the NOTCH transmembrane domain (TMD) in APP where GSMs are hypothesized to bind. […] Bottom row, FT-1 ([…]) raised Aβ42 200% in APP wild-type cells (A); however, in APP-NOTCH TMD cells (B), FT-1 caused minimal changes in the Aβ42 (95%) or Aβ40 (90%) signal. Data are presented as amyloid-β percentage of control±s.e.m., n=3.
# FIG. 19. Substitution of human Notch sequence in the APP transmembrane domain (TMD) changes sensitivity to modulation. (A) Site-directed mutagenesis was used to exchange the analogous region of the human Notch TMD (bold and underlined) for a section (bold and underlined) of wild-type APP (APPwt) we have shown to be labeled by GSMs. The new substrate (APP-Notch TMD) is cleaved by γ-secretase primarily after valine and alanine residues corresponding to 40 and 42 in APPwt (arrows). […] The beginning (1) N-terminal amino acid (AA) to the ending C-terminal AA is shown above each peak, with the molecular weight (m/z) below. 1-40 and 1-42 are detected as the two major species in APP-Notch TMD conditioned media. It should be noted that the mutagenesis strategy to create APPNotch TMD led to a single AA deletion relative to APPwt. […] Both cell lines were treated (6 hours) with L-685,458 (10 μM), which is hypothesized to target the active site aspartate residues, media was collected, and analyzed for changes in Aβ levels. […]
# To test the hypothesis that mutation of the GSM binding site in APP should alter sensitivity to GSMs, a portion of the GSM binding site in APP was exchanged with the analogous region of human NOTCH (FIGS. 18A and 18B; FIG. 19). […] Although the molecular weight and abundance of each chimeric peptide differed from amyloid-β peptides from APP, the main species produced from the APP-NOTCH TMD construct had identical C-termini to Ab1-40 and Ab1-42, and could be quantified by enzyme-linked immunosorbent assays (ELISAs; FIG. 19). […]
# APP-NOTCH TMD cells = assay: Aβ modulation in APP-NOTCH TMD cells; assay type: cell-based, human; parameters: Aβ42 signal (percentage of control) / Aβ40 signal (percentage of control): dose or concentration left out as unconfirmed
# Procedure: as §1
# FIG. 19. Substitution of human Notch sequence in the APP transmembrane domain (TMD) changes sensitivity to modulation. (A) Site-directed mutagenesis was used to exchange the analogous region of the human Notch TMD (bold and underlined) for a section (bold and underlined) of wild-type APP (APPwt) we have shown to be labeled by GSMs. The new substrate (APP-Notch TMD) is cleaved by γ-secretase primarily after valine and alanine residues corresponding to 40 and 42 in APPwt (arrows). […] The beginning (1) N-terminal amino acid (AA) to the ending C-terminal AA is shown above each peak, with the molecular weight (m/z) below. 1-40 and 1-42 are detected as the two major species in APP-Notch TMD conditioned media. It should be noted that the mutagenesis strategy to create APPNotch TMD led to a single AA deletion relative to APPwt. The correct change in molecular weight caused by the introduced mutations were confirmed by the mass spectrum. For simplicity the peptides are referenced by their C-terminal residues relative to Aβ (40, 42, etc). Representative mass spectra are shown from multiple IP reactions (3) and duplicate spots. […] Both cell lines were treated (6 hours) with L-685,458 (10 μM), which is hypothesized to target the active site aspartate residues, media was collected, and analyzed for changes in Aβ levels. The 40 and 42 Aβ reactive species from both cell lines were inhibited by L-685,458 with equal sensitivity (no significant difference; 40 p>0.5; 42 p>0.4; t test; n=3).
# To test the hypothesis that mutation of the GSM binding site in APP should alter sensitivity to GSMs, a portion of the GSM binding site in APP was exchanged with the analogous region of human NOTCH (FIGS. 18A and 18B; FIG. 19). The chimeric construct was used because the NOTCH transmembrane domain (TMD) appears resistant to GSM effects. The APP NOTCH TMD construct produced a spectrum of chimeric amyloid-β species in conditioned cell media (FIG. 19). Although the molecular weight and abundance of each chimeric peptide differed from amyloid-β peptides from APP, the main species produced from the APP-NOTCH TMD construct had identical C-termini to Ab1-40 and Ab1-42, and could be quantified by enzyme-linked immunosorbent assays (ELISAs; FIG. 19). The relative sensitivity to GSMs of APP-NOTCH TMD versus APP was assayed in stably transfected cells. […]
# [1] = system: 7PA2 cells (CHO cells stably expressing human APP751 V717F); assay: 7PA2 cells: Aβ oligomers (IP/western) and Aβ ELISA; assay type: cell-based, Chinese hamster
# Procedure: FIG. 17. γ-secretase modulators decrease the production of cell derived Aβ oligomers. CHO cells stably expressing human APP751 containing the familial Alzheimer's disease mutation V717F (referred to as 7PA2 cells) were incubated for ˜16 hours in the presence of GSMs. […] Aβ40 levels were decreased to varying degrees (26-35%; Li-Cor Odyssey). (B) and (C) Because the extended incubation times necessary to reliably detect Aβ oligomers in this assay can be toxic, we carried out additional dose response studies with fenofibrate and FT-9 to verify that decreases in Aβ oligomers levels were not related to toxicity or global inhibition of Aβ production. […] (C) Increasing doses of FT-9 reduced the detection of Aβ oligomeric bands and Aβ42 decreased preferentially with decreases in Aβ40 at higher doses. […] Aβ species present in conditioned medium were detected by IP using the polyclonal anti-Aβ antibody, DW6 and subsequent immunoblotting with either 6E10 or the 42-specific, anti-Aβ antibody 21F12. Aβ levels in the samples analyzed via IP/western were also quantified via sandwich ELISA. Data presented as percent vehicle control±s.e.m., n=2.
# To address the question of whether GSMs influence the concentration of secreted amyloid-β oligomers, such as those released by Chinese hamster ovary (CHO) cells expressing the APP V717F mutation (referred to as 7PA2 cells), which alter long-term potentiation and perturb the memory of learned behavior when injected into rat brain, 7PA2 cells were treated with two Aβ42-raising GSMs and a novel Aβ42-lowering GSM (FIG. 17) (Walsh et al., Nature 416:535:539 (2002); Calabrese et al., Mol. Cell. Neurosci. 35:183-193 (2007)). Fenofibrate and FT-1 increased amounts of Aβ42 whereas FT-9 lowered Aβ42, but all three GSMs decreased amounts of amyloid-β dimers and trimers. […] In contrast to increased amyloid-β oligomer formation, when CHO cells are genetically manipulated to increase Aβ42 production by co-expression of APP and FAD-linked mutant PSEN1 proteins, both Aβ42-lowering and -raising GSMs decreased oligomer formation (Xia et al., J. Biol. Chem. 272: 7977-7982 (1997)).
# [2] = system: Human H4 neuroglioma cells expressing wild-type APP695 protein or CTF105; assay: Cell-based screens for amyloid-β modulation (H4 cells, ELISA); conditions: H4 cells expressing APP
# Source text: Photoaffinity labelling. All experiments used the following general protocol. […] Cell-based screens for amyloid-β modulation. […] Statistical analysis.
# γ-secretase = γ-secretase (Homo sapiens, UniProt P49768); assay: GSM activity of compounds that bind Aβ or Aβ amyloid (cell-based or cell-free γ-secretase assays, FIG. 12); conditions: two doses (10 and 100 μM)
# Procedure: A literature search was performed to identify compounds reported to bind to the Aβ peptide directly or amyloid. These candidates were initially tested in cell-based assays or cell-free in vitro γ-secretase assays at two doses (10 and 100 μM).
# (§2) Finally, X-34 was tested for its ability to modulate Aβ42 amounts in an APP transgenic mouse (Tg2576).
# human H4 cells = assay: Steroid compounds, Aβ42 levels in human H4 cells (FIG. 2, FIG. 21); assay type: cell-based
# Source text: FIG. 21 contains the results of an in vitro assay, studying the effects of various steroid compounds on Aβ42 levels in human H4 cells. Chemical names and molecular weights of each steroid are presented.
# Agents having the ability to modulate Aβ42 levels were identified as follows. […] It was hypothesized that it might be possible to convert Aβ42 increasing agents into Aβ42 reducing agents by incorporating an acidic group into the core structure. For steroids, multiple steroids containing an acidic group were obtained from Steraloids Inc. and screened for the ability to reduce Aβ42 levels.
# Tg2576 mice = assay: Acute oral dosing of Tg2576 mice, brain soluble Aβ after 4 hours; assay type: in vivo, mouse
# Procedure: FIG. 2. Aβ modulating agents can inhibit Aβ aggregation, and agents that bind Aβ amyloid can modulate Aβ42 production. […] (C) Aβ42 modulating agents inhibit naturally secreted oligomer formation. 7PA2 cells were treated with fenofibrate, FT-1, or FT-9 at 50 μM and oligomers assessed by IP Western blotting. […] (D) FT-9, an Aβ42 reducing agent, can inhibit Aβ42 aggregation in vitro.
# FIG. 13. Compounds that bind Aβ are GSMs in vitro and in vivo. (A) A cell-based screen of Aβ-binders identified molecules that increase Aβ42 (DAPH) or decrease Aβ42 (Bis-ANS, X-34 or chrysamine G (CG)). Data are mean±s.e.m., n=3. (B) X-34 is an Aβ42-lowering GSM. Changes in amyloid-β peptide amounts after X-34 treatment are shown. Data are presented as percentage control±s.e.m., n=3. EC50 values were calculated. […] NA, not applicable. (C) X-34 binds to APP(C100)-Flag and decreases labeling by GSM photoprobes. Biotin incorporation into APP by Fen-B and Flurbi-BpB is presented as percentage of control (peptide without X-34)±s.e.m., n=2. (D) X-34 lowers Aβ42 in Tg2576 mice after 4 h. […] Data are presented as amyloid-β percentage of control relative to vehicle±s.e.m. Animals per group (n). Asterisk, P,0.05; two asterisks, P,0.01; ANOVA with Dunnett's post-hoc analysis.
# as §2
# H4Bri-C99 (CTF-3) = conditions: 6 hours
# Procedure: FIG. 6. […] Parent GSMs and biotin tagged photoactivatable GSMs were evaluated for their effects on Aβ secreted from H4Bri-C99 (CTF-3). Cells were treated with compounds for 6 hours and Aβ measured by ELISA. […] Changes in Aβ (percent control)±s.e.m., n=3.
# Photoaffinity labelling. All experiments used the following general protocol. Samples (recombinant or synthetic peptides, cell lysates and membrane preparations) were exposed in borosilicate test tubes to ultraviolet light (350 nm) in a Rayonet Photoreactor R100 (RPR-3500 lamps, Southern New England Ultra Violet Company) in a cold room (4° C.) for 30 minutes or as otherwise noted. Crosslinked samples were analyzed by ELISA for biotin incorporation, or analyzed directly by SDS-PAGE (Criterion-XT, Bio-Rad), or after precipitation with streptavidin ultralink plus beads (Pierce). After immunblotting, proteins were detected using chemiluminesence (ECL Plus, GEHealthcare) or near-infrared fluorescence (LiCor Odyssey). Full-length APP and APP CTFs (CTF83, CTF99) were detected with CT20, a rabbit polyclonal antibody against the C-terminus of APP. Biotin was detected with an affinity-purified rabbit polyclonal antibody (Bethyl). Cell-based screens for amyloid-β modulation. Human H4 neuroglioma cells (American Type Culture Collection, ATCC) expressing wild-type APP695 protein or CTF105 fused to secreted alkaline phosphatase which is efficiently processed to APP CTFs (CTF83, CTF99) and produce high levels of amyloid-β, were used for the cell-based screens as previously described. Cells were incubated for 5-6 hours in the presence of the various compounds in Opti-Mem culture medium containing 1% fetal bovine serum. Compounds were dissolved in dimethylsulphoxide (DMSO; 0.5% final concentration) and diluted 200-fold. Media was analyzed for various amyloid-β species (40, 42 and total) using ELISAs as described herein. The EC50 values for changes in amyloid-β species were calculated by fitting sigmoid dose-response curves using nonlinear regression in Prism (GraphPad) and are shown as values±s.e.m. Statistical analysis. Data are presented as either percentage control or mean±s.e.m. Results were analyzed using Prism (Graph Pad) with t-tests or one-way analysis of variance analyses (ANOVAs) with Dunnett's post-hoc correction for comparison of multiple samples to a control. Statistical significance is shown as P,0.05 (one asterisk), P,0.01 (two asterisks) or P,0.001 (three asterisks).
# [3] = FT-9 and FT-1 20 μM, fenofibrate 100 μM, ~16 hours
structure (smiles),measurement,setting,value
"CC(C)C[C@H](NC(=O)[C@H](Cc1ccccc1)C[C@@H](O)[C@H](Cc1ccccc1)NC(=O)OC(C)(C)C)C(=O)N[C@@H](Cc1ccccc1)C(N)=O [L-685,458]",40 and 42 Aβ reactive species,"APP wild-type cells; 10 μM, 6 hours, APPwt",inhibited
same,40 and 42 Aβ reactive species,"APP-NOTCH TMD cells; 10 μM, 6 hours, APP-Notch TMD",inhibited
"CC(C#N)c1ccc([N+](=O)[O-])c(Oc2cc(Cl)cc(Cl)c2)c1 (centres unmarked) [FT-1, 2-(3-(3,5-dichlorophenoxy)-4-nitrophenyl)propanenitrile]",naturally secreted oligomer formation,"[1]; 50 μM, IP Western blotting",inhibit oligomer formation
same,Aβ42 production in 7PA2 cells,[1]; [3],increase production of Aβ42
same,dimeric and trimeric Aβ species,[1]; [3],reduce production of dimeric and trimeric Aβ species
same,Aβ42 raised,APP wild-type cells; APP wild-type cells,200%
same,Aβ40 signal (percentage of control),APP-NOTCH TMD cells; APP-NOTCH TMD cells,90%
same,Aβ42 signal (percentage of control),APP-NOTCH TMD cells; APP-NOTCH TMD cells,95%
"O=S(=O)(O)c1cccc2c(-c3ccc(Nc4ccccc4)c4c(S(=O)(=O)O)cccc34)ccc(Nc3ccccc3)c12 [Bis-ANS, 4,49-dianilino-1,19-binaphthyl-5,59-disulphonic acid]",Aβ42 levels,[2],decrease
same,GSM activity,γ-secretase,Aβ42-lowering
"C[C@H](CCC(=O)O)[C@H]1CC[C@H]2[C@@H]3[C@H](O)C[C@@H]4C[C@H](O)CC[C@]4(C)[C@H]3CC[C@]12C [5β cholanic acid 3a, 7a diol]",Aβ42 levels (acidic steroids),human H4 cells,does not
C[C@H](NC(=O)[C@@H](O)c1cc(F)cc(F)c1)C(=O)N[C@@H]1C(=O)N(C)c2ccccc2-c2ccccc21 [LY-411575],selectivity of Aβ reduction (Aβ42 vs Aβ40),"Tg2576 mice; Tg2576, oral gavage, 4 hours",reduces Aβ40 preferentially
C[C@@H](C(=O)O)c1ccc(-c2ccccc2)c(F)c1 [Tarenflurbil],Aβ42 (direction of change),H4Bri-C99 (CTF-3),lowered Aβ42
same,total Aβ levels,H4Bri-C99 (CTF-3),without decreasing total Aβ levels
same,lowering of Aβ42 in the brains,"Tg2576 mice; 50 mg kg21, Tg2576 mice, 4 h",25%
C[C@H](CCC(=O)O)[C@H]1CC[C@H]2[C@@H]3CC[C@@H]4CCCC[C@]4(C)[C@H]3CC[C@]12C [5β-cholanic acid],Aβ42 levels (acidic steroids),human H4 cells,one of the more potent Aβ42 reducing agents
same,Aβ42 levels (acidic steroids),human H4 cells; listed as 5-β-cholanic acid,most potent Aβ42 lowering GSM
same,Aβ42 levels (acidic steroids),human H4 cells; listed as 5β-Cholanic acid,potently reduces Aβ42
"O=C1NC(=O)c2cc(Nc3ccccc3)c(Nc3ccccc3)cc21 [DAPH, 4,5-dianilinophthalimide]",Aβ42 levels,[2],selectively increase
same,GSM activity,γ-secretase,Aβ42-raising

# From patent US20110021471A1, “REDUCING Abeta42 LEVELS AND Abeta AGGREGATION” (priority 2007, published 2011)
